Key:
Format in all cases: binding
[1] = target: SW480 colon carcinoma cells lysate proteins (Homo sapiens, UniProt P17980); settings: PreyGene PSMC3
[2] = target: SW480 colon carcinoma cells lysate proteins (Homo sapiens, UniProt P30040); settings: PreyGene ERP29
[3] = target: T1, SW480 colon carcinoma cells lysate proteins (Homo sapiens, UniProt P32119); settings: PreyGene PRDX2
T1 sequence (P32119 1-198): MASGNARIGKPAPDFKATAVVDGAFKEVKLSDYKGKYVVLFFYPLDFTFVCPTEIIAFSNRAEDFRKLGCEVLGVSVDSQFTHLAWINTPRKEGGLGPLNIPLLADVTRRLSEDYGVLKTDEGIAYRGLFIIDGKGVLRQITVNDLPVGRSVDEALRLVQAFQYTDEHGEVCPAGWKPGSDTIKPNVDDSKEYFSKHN

[4] = target: T2, SW480 colon carcinoma cells lysate proteins (Homo sapiens, UniProt P52565); settings: PreyGene ARHGDIA
T2 sequence (P52565 1-204): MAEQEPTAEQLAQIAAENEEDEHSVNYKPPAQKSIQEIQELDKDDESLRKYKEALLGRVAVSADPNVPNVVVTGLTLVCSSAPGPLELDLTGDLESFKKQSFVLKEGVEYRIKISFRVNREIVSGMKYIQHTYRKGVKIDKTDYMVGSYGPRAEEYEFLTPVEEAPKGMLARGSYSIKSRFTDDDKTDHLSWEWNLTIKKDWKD

[5] = target: SW480 colon carcinoma cells lysate proteins (Homo sapiens, UniProt P61204); settings: PreyGene ARF3
SW480 colon carcinoma cells lysate proteins (Homo sapiens, UniProt P61204), sequence (P61204 whole entry): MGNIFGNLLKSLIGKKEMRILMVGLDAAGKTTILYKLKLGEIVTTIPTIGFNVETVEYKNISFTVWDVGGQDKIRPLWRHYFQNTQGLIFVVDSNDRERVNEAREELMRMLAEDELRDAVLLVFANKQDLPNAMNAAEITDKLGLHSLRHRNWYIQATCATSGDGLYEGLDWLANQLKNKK

[6] = target: SW480 colon carcinoma cells lysate proteins (Homo sapiens, UniProt P83731); settings: PreyGene RPL24; SW480 cells
[7] = target: T3, SW480 colon carcinoma cells lysate proteins (Homo sapiens, UniProt Q04837); settings: PreyGene SSBP1; SW480 cells
T3 sequence (Q04837 17-148): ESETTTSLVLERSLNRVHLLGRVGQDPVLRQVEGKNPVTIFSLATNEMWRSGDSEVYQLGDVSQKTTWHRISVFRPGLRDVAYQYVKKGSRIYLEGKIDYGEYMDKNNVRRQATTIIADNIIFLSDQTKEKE

[8] = target: T4, SW480 colon carcinoma cells lysate proteins (Homo sapiens, UniProt Q07021); settings: PreyGene C1QBP
T4 sequence (Q07021 74-282): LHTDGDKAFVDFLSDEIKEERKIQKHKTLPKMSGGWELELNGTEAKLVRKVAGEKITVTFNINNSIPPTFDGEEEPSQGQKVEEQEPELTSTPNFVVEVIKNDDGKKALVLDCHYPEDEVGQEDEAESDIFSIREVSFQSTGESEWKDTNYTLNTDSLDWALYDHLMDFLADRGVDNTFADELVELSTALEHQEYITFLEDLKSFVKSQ

[9] = target: SW480 colon carcinoma cells lysate proteins (Homo sapiens, UniProt Q92688); settings: PreyGene ANP32B
SW480 colon carcinoma cells lysate proteins (Homo sapiens, UniProt Q92688), sequence (Q92688 whole entry): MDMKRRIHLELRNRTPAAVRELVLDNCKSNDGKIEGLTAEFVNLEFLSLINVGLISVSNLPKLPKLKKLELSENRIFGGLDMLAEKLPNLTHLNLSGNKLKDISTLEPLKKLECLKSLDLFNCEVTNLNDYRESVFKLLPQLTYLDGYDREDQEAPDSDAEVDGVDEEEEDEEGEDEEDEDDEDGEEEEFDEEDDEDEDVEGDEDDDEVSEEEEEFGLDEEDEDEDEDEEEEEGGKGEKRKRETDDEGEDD

[10] = target: SW480 colon carcinoma cells lysate proteins (Homo sapiens, UniProt Q9NZI8); settings: PreyGene IGF2BP1; SW480 cells
SW480 colon carcinoma cells lysate proteins (Homo sapiens, UniProt Q9NZI8), sequence (Q9NZI8 whole entry): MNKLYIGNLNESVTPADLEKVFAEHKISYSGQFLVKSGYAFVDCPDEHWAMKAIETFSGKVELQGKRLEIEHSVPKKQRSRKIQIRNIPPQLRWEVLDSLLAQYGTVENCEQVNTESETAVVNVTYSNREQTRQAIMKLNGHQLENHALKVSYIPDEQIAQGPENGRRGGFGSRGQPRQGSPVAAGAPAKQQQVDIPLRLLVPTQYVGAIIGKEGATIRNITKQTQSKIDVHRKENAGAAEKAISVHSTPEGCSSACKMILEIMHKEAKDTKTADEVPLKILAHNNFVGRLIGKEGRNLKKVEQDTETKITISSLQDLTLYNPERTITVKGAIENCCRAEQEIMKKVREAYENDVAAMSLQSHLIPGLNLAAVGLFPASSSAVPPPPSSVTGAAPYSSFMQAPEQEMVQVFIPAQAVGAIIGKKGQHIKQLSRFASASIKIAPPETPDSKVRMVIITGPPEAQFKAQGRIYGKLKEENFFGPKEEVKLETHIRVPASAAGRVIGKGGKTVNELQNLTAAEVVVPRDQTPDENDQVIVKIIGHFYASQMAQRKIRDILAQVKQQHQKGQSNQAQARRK

[11] = target: SW480 colon carcinoma cells lysate proteins (Homo sapiens, UniProt Q9Y262); settings: PreyGene EIF3L; SW480 cells
SW480 colon carcinoma cells lysate proteins (Homo sapiens, UniProt Q9Y262), sequence (Q9Y262 whole entry): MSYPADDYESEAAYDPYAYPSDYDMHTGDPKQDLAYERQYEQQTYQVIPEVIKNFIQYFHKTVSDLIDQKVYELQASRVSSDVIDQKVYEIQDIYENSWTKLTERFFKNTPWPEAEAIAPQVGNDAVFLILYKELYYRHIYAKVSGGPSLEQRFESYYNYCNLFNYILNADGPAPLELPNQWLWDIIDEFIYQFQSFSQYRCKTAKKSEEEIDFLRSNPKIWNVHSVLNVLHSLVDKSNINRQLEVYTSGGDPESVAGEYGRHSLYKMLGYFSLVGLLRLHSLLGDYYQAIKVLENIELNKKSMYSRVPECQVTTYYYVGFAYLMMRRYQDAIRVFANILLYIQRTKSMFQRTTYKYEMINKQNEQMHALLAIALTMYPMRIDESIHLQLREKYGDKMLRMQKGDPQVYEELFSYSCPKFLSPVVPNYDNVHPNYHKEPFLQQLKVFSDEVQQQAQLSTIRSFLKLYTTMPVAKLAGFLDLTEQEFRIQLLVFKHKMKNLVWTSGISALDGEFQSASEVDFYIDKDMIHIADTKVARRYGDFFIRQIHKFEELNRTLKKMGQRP

SW480 colon carcinoma cells lysate proteins (Homo sapiens, UniProt P17980), sequence (P17980 whole entry): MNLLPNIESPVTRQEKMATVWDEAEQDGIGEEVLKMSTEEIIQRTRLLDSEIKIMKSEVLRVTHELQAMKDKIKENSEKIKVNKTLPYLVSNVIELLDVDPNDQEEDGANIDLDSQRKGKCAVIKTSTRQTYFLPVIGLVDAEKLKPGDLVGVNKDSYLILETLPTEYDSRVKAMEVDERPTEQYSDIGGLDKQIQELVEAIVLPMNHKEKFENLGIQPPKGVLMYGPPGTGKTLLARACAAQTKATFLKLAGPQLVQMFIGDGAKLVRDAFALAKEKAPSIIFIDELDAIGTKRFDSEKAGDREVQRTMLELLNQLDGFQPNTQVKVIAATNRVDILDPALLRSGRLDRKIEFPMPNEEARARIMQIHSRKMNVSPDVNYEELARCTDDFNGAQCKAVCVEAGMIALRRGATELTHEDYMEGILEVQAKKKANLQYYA

C[C@H](Oc1cc(-c2cnn(C3CCNCC3)c2)cnc1N)c1c(Cl)ccc(F)c1Cl [(5)-crizotinib]
AvgP [1]: 0.4297 | SC.Exp. 1-1 [1]: 3 | SC.Exp. 1-2 [1]: 3 | SC.Exp. 2-1 [1]: 0 | SC.Exp. 2-2 [1]: 0 | Sum (SC.Exp.) [1]: 6 | AvgP [2]: 0.1841 | SC.Exp. 1-1 [2]: 2 | SC.Exp. 1-2 [2]: 0 | SC.Exp. 2-1 [2]: 0 | SC.Exp. 2-2 [2]: 0 | Sum (SC.Exp.) [2]: 2 | AvgP [3]: 0.3255 | SC.Exp. 1-1 [3]: 4 | SC.Exp. 1-2 [3]: 4 | SC.Exp. 2-1 [3]: 0 | SC.Exp. 2-2 [3]: 0 | Sum (SC.Exp.) [3]: 8 | AvgP [4]: 0.4128 | SC.Exp. 1-1 [4]: 2 | SC.Exp. 1-2 [4]: 3 | SC.Exp. 2-1 [4]: 0 | SC.Exp. 2-2 [4]: 0 | Sum (SC.Exp.) [4]: 5 | AvgP [5]: 0.1881 | SC.Exp. 1-1 [5]: 2 | SC.Exp. 1-2 [5]: 0 | SC.Exp. 2-1 [5]: 0 | SC.Exp. 2-2 [5]: 0 | Sum (SC.Exp.) [5]: 2 | AvgP [6]: 0 | SC.Exp. 1-1 [6]: 4 | SC.Exp. 1-2 [6]: 4 | SC.Exp. 2-1 [6]: 3 | SC.Exp. 2-2 [6]: 4 | SC.Exp. Sum [6]: 15 | AvgP [7]: 0 | SC.Exp. 1-1 [7]: 1 | SC.Exp. 1-2 [7]: 1 | SC.Exp. 2-1 [7]: 0 | SC.Exp. 2-2 [7]: 0 | SC.Exp. Sum [7]: 2 | AvgP [8]: 0.33 | SC.Exp. 1-1 [8]: 3 | SC.Exp. 1-2 [8]: 3 | SC.Exp. 2-1 [8]: 0 | SC.Exp. 2-2 [8]: 0 | Sum (SC.Exp.) [8]: 6 | AvgP [9]: 0.5116 | SC.Exp. 1-1 [9]: 0 | SC.Exp. 1-2 [9]: 1 | SC.Exp. 2-1 [9]: 4 | SC.Exp. 2-2 [9]: 4 | Sum (SC.Exp.) [9]: 9 | AvgP [10]: 0 | SC.Exp. 1-1 [10]: 4 | SC.Exp. 1-2 [10]: 8 | SC.Exp. 2-1 [10]: 4 | SC.Exp. 2-2 [10]: 6 | SC.Exp. Sum [10]: 22 | AvgP [11]: 0 | SC.Exp. 1-1 [11]: 9 | SC.Exp. 1-2 [11]: 7 | SC.Exp. 2-1 [11]: 6 | SC.Exp. 2-2 [11]: 4 | SC.Exp. Sum [11]: 26

— patent US9446039B2, “Aminoheteroaryl compounds as MTH1 inhibitors” (CEMM—FORSCHUNGSZENTRUM FÜR MOLEKULARE MEDIZIN GMBH, priority 2012, dated 2016)
